Data taken from patent publication US12459921B2, “Isoindoline compound, preparation method, pharmaceutical composition and use thereof” (SHANGHAI INSTITUTE OF MATERIA MEDICA, CHINESE ACADEMY OF …, priority 2018, dated 2025).

Tested on: MM.1S cells
Assay: Inhibitory effect on the proliferation of MM.1S, MTS cell viability test
Assay type: cell-based
Details: Homo sapiens, MM1.S, 168 h, multiple myeloma MM.1S cells, 7 days incubation, read-out: Tumor cell inhibitory activity
Method in brief: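 Viability measured by MTS (OD490 minus OD690 background, 3-4 h) after a 7-day exposure of 20,000 MM.1S cells/well to 5-fold serially diluted compound, 0.2% DMSO final. Inhibition calculated relative to DMSO wells; IC50 curve-fitted, averaged over three repeats.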

Row | SMILES | IC50 [nM]
1 | O=C1CCC(N2Cc3c(CCCCCN4CCN(c5cccc6ccsc56)CC4)cccc3C2=O)C(=O)N1 (centres unmarked) [Example 225, 3-(4-(5-(4-(benzothiophene-7-yl)piperazin-1-yl)pentyl)-1-oxoisoindoline-2-yl)piperidine-2,6-dione] | 1000 to 20000
2 | O=C1CCC(N2Cc3c(CCCCN4CCC(c5noc6cc(F)ccc56)CC4)cccc3C2=O)C(=O)N1 (centres unmarked) [Example 227, 3-(4-(4-(4-(6-fluorobenzisoxazole-3-yl)piperidin-1-yl)butyl)-1-oxoisoindoline-2-yl)piperidine-2,6-dione] | 1000 to 20000
3 | O=C1CCC(N2Cc3c(CCCCN4CCN(c5noc6ccccc56)CC4)cccc3C2=O)C(=O)N1 (centres unmarked) [Example 228, 3-(4-(4-(4-(benzisoxazole-3-yl)piperazine-1-yl)butyl)-1-oxoisoindoline-2-yl)piperidine-2,6-dione] | 1000 to 20000
4 | O=C1CCC(N2Cc3c(CCCCN4CCN(c5cc(Cl)ccc5Cl)CC4)cccc3C2=O)C(=O)N1 (centres unmarked) [Example 229, 3-(4-(4-(4-(2,5-dichlorophenyl)piperazine-1-yl)butyl)-1-oxoisoindoline-2-yl) piperidine-2,6-dione] | 100 to 1000
5 | O=C1CCC(N2Cc3c(CCCCN4CCN(c5nsc6ccccc56)CC4)cccc3C2=O)C(=O)N1 (centres unmarked) [Example 230, 3-(4-(4-(4-(benzisothiazol-3-yl)piperazine-1-yl)butyl)-1-oxoisoindoline-2-yl) piperidine-2,6-dione] | 1000 to 20000
6 | O=C1CCC(N2Cc3c(CCCCCN4CCN(c5noc6ccccc56)CC4)cccc3C2=O)C(=O)N1 (centres unmarked) [Example 231, 3-(4-(5-(4-(benzisoxazole-3-yl)piperazin-1-yl)pentyl)-1-oxoisoindoline-2-yl) piperidine-2,6-dione] | 1000 to 20000
7 | O=C1CCC(N2Cc3c(CCCCCN4CCN(c5nsc6ccccc56)CC4)cccc3C2=O)C(=O)N1 (centres unmarked) [Example 232, 3-(4-(5-(4-(benzisothiazol-3-yl)piperazin-1-yl)pentyl)-1-oxoisoindoline-2-yl) piperidine-2,6-dione] | 1000 to 20000
8 | O=C1CCC(N2Cc3c(CCCCCN4CCN(c5cc(Cl)ccc5Cl)CC4)cccc3C2=O)C(=O)N1 (centres unmarked) [Example 233, 3-(4-(5-(4-(2,5-dichlorophenyl)piperazine-1-yl)pentyl)-1-oxoisoindoline-2-yl) piperidine-2,6-dione] | 100 to 1000
9 | O=C1CCC(N2Cc3c(CCCCCN4CCN(c5ccc(Cl)c(Cl)c5)CC4)cccc3C2=O)C(=O)N1 (centres unmarked) [Example 234, 3-(4-(5-(4-(3,4-dichlorophenyl)piperazine-1-yl)pentyl)-1-oxoisoindoline-2-yl)piperidine-2,6-dione] | 100 to 1000
10 | O=C1CCC(N2Cc3c(CCCCCN4CCN(c5ccc(Cl)cc5Cl)CC4)cccc3C2=O)C(=O)N1 (centres unmarked) [Example 236, 3-(4-(5-(4-(2,4-dichlorophenyl)piperazine-1-yl)pentyl)-1-oxoisoindoline-2-yl)piperidine-2,6-dione] | 1000 to 20000
11 | O=C1CCC(N2Cc3c(CCCCCN4CCN(c5cc(Cl)cc(Cl)c5)CC4)cccc3C2=O)C(=O)N1 (centres unmarked) [Example 237, 3-(4-(5-(4-(3,5-dichlorophenyl)piperazine-1-yl)pentyl)-1-oxoisoindoline-2-yl)piperidine-2,6-dione] | 100 to 1000
12 | O=C1CCC(N2Cc3c(OCCCN4CCN(c5cccc(Cl)c5Cl)CC4)cccc3C2=O)C(=O)N1 (centres unmarked) [Example 238, 3-(4-(3-(4-(2,3-dichlorophenyl)piperazine-1-yl)propoxy)-1-oxoisoindoline-2-yl)piperidine-2,6-dione] | 100 to 1000
13 | O=C1CCC(N2Cc3c(OCCCCN4CCN(c5cccc6ccsc56)CC4)cccc3C2=O)C(=O)N1 (centres unmarked) [Example 239, 3-(4-(4-(4-(benzothiophene-7-yl)piperazine-1-yl)butoxy)-1-oxoisoindoline-2-yl)piperidine-2,6-dione] | 1000 to 20000
14 | O=C1CCC(N2Cc3c(OCCCCN4CCN(c5cccc(Cl)c5Cl)CC4)cccc3C2=O)C(=O)N1 (centres unmarked) [Example 240, 3-(4-(4-(4-(2,3-dichlorophenyl)piperazine-1-yl)butoxy)-1-oxoisoindoline-2-yl)piperidine-2,6-dione] | 1000 to 20000
15 | O=C1CCC(N2Cc3c(OCCCCN4CCC(c5noc6cc(F)ccc56)CC4)cccc3C2=O)C(=O)N1 (centres unmarked) [Example 241, 3-(4-(4-(4-(6-fluorobenzisoxazole-3-yl)piperidin-1-yl)butoxy)-1-oxoisoindoline-2-yl) piperidine-2,6-dione] | 1000 to 20000
16 | O=C1CCC(N2Cc3c(OCCCCN4CCN(c5noc6ccccc56)CC4)cccc3C2=O)C(=O)N1 (centres unmarked) [Example 242, 3-(4-(4-(4-(benzisoxazole-3-yl)piperazine-1-yl)butoxy)-1-oxoisoindoline-2-yl)piperidine-2,6-dione] | 1000 to 20000

Row | SMILES | IC50 [nM]
17 | O=C1CCC(N2Cc3c(OCCCCN4CCN(c5ccc(Cl)c(Cl)c5)CC4)cccc3C2=O)C(=O)N1 (centres unmarked) [Example 243, 3-(4-(4-(4-(3,4-dichlorophenyl)piperazine-1-yl)butoxy)-1-oxoisoindoline-2-yl)piperidine-2,6-dione] | 100 to 1000
18 | N#CC1(c2cc(Cl)cc(Cl)c2)CCN(CCCCc2cccc3c2CN(C2CCC(=O)NC2=O)C3=O)CC1 (centres unmarked) [Example 244, 4-(3,5-dichlorophenyl)-1-(4-(2-(2,6-dioxopiperidine-3-yl)-1-oxoisoindoline-4-yl)butyl)piperidine-4-carbonitrile] | 100 to 1000
19 | COc1ccc(C2(C#N)CCN(CCCCc3cccc4c3CN(C3CCC(=O)NC3=O)C4=O)CC2)c(Cl)c1 (centres unmarked) [Example 245, 4-(2-chloro-4-methoxyphenyl)-1-(4-(2-(2,6-dioxopiperidine-3-yl)-1-oxoisoindoline-4-yl)butyl)piperidine-4-carbonitrile] | 100 to 1000
20 | COc1ccc(OC)c(C2(C#N)CCN(CCCCc3cccc4c3CN(C3CCC(=O)NC3=O)C4=O)CC2)c1 (centres unmarked) [Example 246, 4-(2,5-dimethoxyphenyl)-1-(4-(2-(2,6-dioxopiperidine-3-yl)-1-oxoisoindoline-4-yl)butyl)piperidine-4-carbonitrile] | 100 to 1000
21 | COc1ccc(OC)c(C2(C#N)CCN(CCCCCc3cccc4c3CN(C3CCC(=O)NC3=O)C4=O)CC2)c1 (centres unmarked) [Example 247, 4-(2,5-dimethoxyphenyl)-1-(5-(2-(2,6-dioxopiperidine-3-yl)-1-oxoisoindoline-4-yl)pentyl)piperidine-4-carbonitrile] | 100 to 1000
22 | COc1ccc(C2(C#N)CCN(CCCCCc3cccc4c3CN(C3CCC(=O)NC3=O)C4=O)CC2)cc1OC (centres unmarked) [Example 249, 4-(3,4-dimethoxyphenyl)-1-(5-(2-(2,6-dioxopiperidine-3-yl)-1-oxoisoindoline-4-yl)pentyl)piperidine-4-carbonitrile] | 100 to 1000
23 | N#CC1(c2c(Cl)cccc2Cl)CCN(CCCCCc2cccc3c2CN(C2CCC(=O)NC2=O)C3=O)CC1 (centres unmarked) [Example 250, 4-(2,6-dichlorophenyl)-1-(5-(2-(2,6-dioxopiperidin-3-yl)-1-oxoisoindoline-4-yl)pentyl)piperidine-4-carbonitrile] | 100 to 1000
24 | N#CC1(c2cc(Cl)cc(Cl)c2)CCN(CCCCCc2cccc3c2CN(C2CCC(=O)NC2=O)C3=O)CC1 (centres unmarked) [Example 251, 4-(3,5-dichlorophenyl)-1-(5-(2-(2,6-dioxopiperidin-3-yl)-1-oxoisoindoline-4-yl)pentyl)piperidine-4-carbonitrile] | 100 to 1000
25 | N#CC1(c2ccc(O[C@H]3CCOC3)cc2)CCN(CCCCCc2cccc3c2CN(C2CCC(=O)NC2=O)C3=O)CC1 (stereo partly drawn) [Example 252, 1-(5-(2-(2,6-dioxopiperidin-3-yl)-1-oxoisoindolin-4-yl)pentyl)-4-(4-(((S)-tetrahydrofuran-3-yl)oxy)phenyl)piperidine-4-carbonitrile] | 100 to 1000
26 | COc1ccc(C2(C#N)CCN(CCCCc3cccc4c3CN(C3CCC(=O)NC3=O)C4=O)CC2)c(OC)c1OC (centres unmarked) [Example 253, 1-(4-(2-(2,6-dioxopiperidin-3-yl)-1-oxoisoindolin-4-yl)butyl)-4-(2,3,4-trimethoxyphenyl)piperidine-4-carbonitrile] | 1000 to 20000
27 | COc1ccc(C2(C#N)CCN(CCCCCc3cccc4c3CN(C3CCC(=O)NC3=O)C4=O)CC2)c(OC)c1OC (centres unmarked) [Example 254, 1-(5-(2-(2,6-dioxopiperidin-3-yl)-1-oxoisoindolin-4-yl)pentyl)-4-(2,3,4-trimethoxyphenyl)piperidine-4-carbonitrile] | 1000 to 20000
28 | COc1ccc(C2(C#N)CCN(CCCCCc3cccc4c3CN(C3CCC(=O)NC3=O)C4=O)CC2)c(OC)c1 (centres unmarked) [Example 255, 4-(2,4-dimethoxyphenyl)-1-(5-(2-(2,6-dioxopiperidin-3-yl)-1-oxoisoindoline-4-yl)pentyl)piperidine-4-carbonitrile] | 1000 to 20000
29 | COc1ccc(C2(C#N)CCN(CCCCc3cccc4c3CN(C3CCC(=O)NC3=O)C4=O)CC2)c(OC)c1 (centres unmarked) [Example 256, 4-(2,4-dimethoxyphenyl)-1-(4-(2-(2,6-dioxopiperidin-3-yl)-1-oxoisoindoline-4-yl)butyl)piperidine-4-carbonitrile] | 1000 to 20000
30 | N#CC1(c2ccc(OC(F)(F)F)cc2Cl)CCN(CCCCc2cccc3c2CN(C2CCC(=O)NC2=O)C3=O)CC1 (centres unmarked) [Example 257, 4-(2-chloro-4-(trifluoromethoxy)phenyl)-1-(4-(2-(2,6-dioxopiperidin-3-yl)-1-oxoisoindolin-4-yl)butyl)piperidine-4-carbonitrile] | 100 to 1000
31 | N#CC1(c2ccc(OC(F)(F)F)cc2Cl)CCN(CCCCCc2cccc3c2CN(C2CCC(=O)NC2=O)C3=O)CC1 (centres unmarked) [Example 258, 4-(2-chloro-4-(trifluoromethoxy)phenyl)-1-(5-(2-(2,6-dioxopiperidin-3-yl)-1-oxoisoindolin-4-yl)pentyl)piperidine-4-carbonitrile] | 100 to 1000
32 | COc1cccc(C2(C#N)CCN(CCCCc3cccc4c3CN(C3CCC(=O)NC3=O)C4=O)CC2)c1OC (centres unmarked) [Example 259, 4-(2,3-dimethoxyphenyl)-1-(4-(2-(2,6-dioxopiperidin-3-yl)-1-oxoisoindoline-4-yl)butyl)piperidine-4-carbonitrile] | 100 to 1000
